Laboratory results from patent US10618918B2, “Substituted boronic acids as antimicrobials” (priority 2015, dated 2020).
Where two headings read alike, the source gives them in different places.

What was measured:
[1] = test system: AB1053 OXA-72; assay: Meropenem potentiation (MPC@8), strain AB1053 OXA-72; type: cell-based, Acinetobacter baumannii; conditions: minimum BLI concentration inhibiting growth with meropenem 8 μg/mL; tested up to 20 μg/mL
[2] = test system: ECL1002; assay: Aztreonam potentiation (MPC@4), strain ECL1002; conditions: minimum BLI concentration inhibiting growth with aztreonam 4 μg/mL; tested up to 40 μg/mL
[3] = test system: AB1054 OXA-23; assay: Meropenem potentiation (MPC@8), strain AB1054 OXA-23; type: cell-based, Acinetobacter baumannii; conditions: minimum BLI concentration inhibiting growth with meropenem 8 μg/mL; tested up to 20 μg/mL
[4] = test system: KP1004 KPC-2; assay: Aztreonam potentiation (MPC@4), strain KP1004 KPC-2; conditions: minimum BLI concentration inhibiting growth with aztreonam 4 μg/mL; tested up to 40 μg/mL
[5] = test system: KP1005 CTX-M-14; assay: Tigemonam potentiation (MPC@4), strain KP1005 CTX-M-14; conditions: minimum BLI concentration inhibiting growth with tigemonam 4 μg/mL; tested up to 40 μg/mL
[6] = test system: ec308 SHV-5; assay: Aztreonam potentiation (MPC@4), strain ec308 SHV-5; conditions: minimum BLI concentration inhibiting growth with aztreonam 4 μg/mL; tested up to 40 μg/mL
[7] = test system: EC1010 CMY-6; assay: Aztreonam potentiation (MPC@4), strain EC1010 CMY-6; conditions: minimum BLI concentration inhibiting growth with aztreonam 4 μg/mL; tested up to 40 μg/mL
[8] = target: purified class A, C and D enzymes (β-lactamases) (Enterobacter cloacae, UniProt P05364); assay: biochemical; type: biochemical
[9] = target: purified class A, C and D enzymes (β-lactamases) (Klebsiella pneumoniae, UniProt Q6XEC0); assay: biochemical; type: biochemical; conditions: purified OXA-48; nitrocefin (NCF) as reporter substrate
[10] = target: purified class A, C and D enzymes (β-lactamases) (Klebsiella pneumoniae, UniProt Q9F663); assay: biochemical; type: biochemical; conditions: purified KPC-2; nitrocefin (NCF) as reporter substrate
[11] = target: T1, purified class A, C and D enzymes (β-lactamases) (Acinetobacter baumannii, UniProt Q9L4P2); assay: biochemical; type: biochemical; conditions: purified OXA-23; nitrocefin (NCF) as reporter substrate
T1 construct: rows headed: Ki (OXA-23, NCF), uM; other: purified OXA-23; nitrocefin (NCF) as reporter substrate

[12] = target: purified class A, C and D enzymes (β-lactamases) (Escherichia coli, UniProt Q9L5C7); assay: biochemical; type: biochemical; conditions: purified CTX-M-14; nitrocefin (NCF) as reporter substrate
[13] = target: T2, purified class A, C and D enzymes (β-lactamases) (Pseudomonas aeruginosa, UniProt P24735); assay: biochemical; type: biochemical
T2 construct: rows headed: Ki (Pa-AmpC, NCF), uM; other: purified Pa-AmpC; nitrocefin (NCF) as reporter substrate

[14] = test system: KP1086 OXA-48; assay: Biapenem potentiation (MPC@1), strain KP1086 OXA-48; type: cell-based; conditions: minimum BLI concentration inhibiting growth with biapenem 1 μg/mL; tested up to 40 μg/mL
Procedure: (§1) Biapenem was present in the test medium at 1 μg/mL. […] Table 3 summarizes the BLI potency of biapenem potentiation (MPC@1) for two strains overexpressing class A (KPC) and class D (OXA-48) carbapenemases. Biapenem MIC for each strain is also shown.

[15] = test system: KP1004 KPC-2; assay: Biapenem potentiation (MPC@1), strain KP1004 KPC-2; type: cell-based; conditions: minimum BLI concentration inhibiting growth with biapenem 1 μg/mL; tested up to 40 μg/mL
Procedure: as §1

[16] = test system: KP1009 CTX-M-15; assay: Aztreonam potentiation (MPC@4), strain KP1009 CTX-M-15; conditions: minimum BLI concentration inhibiting growth with aztreonam 4 μg/mL; tested up to 40 μg/mL
[17] = test system: ec302 TEM-10; assay: Aztreonam potentiation (MPC@4), strain ec302 TEM-10; conditions: minimum BLI concentration inhibiting growth with aztreonam 4 μg/mL; tested up to 40 μg/mL
[18] = test system: KP1010 SHV-12; assay: Aztreonam potentiation (MPC@4), strain KP1010 SHV-12; conditions: minimum BLI concentration inhibiting growth with aztreonam 4 μg/mL; tested up to 40 μg/mL

T2 sequence (P24735 whole entry): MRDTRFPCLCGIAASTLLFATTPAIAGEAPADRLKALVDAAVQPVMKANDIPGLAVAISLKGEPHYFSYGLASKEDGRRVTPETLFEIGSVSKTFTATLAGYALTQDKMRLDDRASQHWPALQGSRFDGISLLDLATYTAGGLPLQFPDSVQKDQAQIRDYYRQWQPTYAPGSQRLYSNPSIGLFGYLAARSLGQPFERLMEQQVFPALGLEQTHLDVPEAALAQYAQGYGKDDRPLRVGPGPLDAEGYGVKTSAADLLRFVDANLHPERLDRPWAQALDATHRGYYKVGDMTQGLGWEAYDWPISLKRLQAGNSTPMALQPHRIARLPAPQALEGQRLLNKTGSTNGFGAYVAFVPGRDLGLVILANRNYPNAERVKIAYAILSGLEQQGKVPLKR
T1 sequence (Q9L4P2 whole entry): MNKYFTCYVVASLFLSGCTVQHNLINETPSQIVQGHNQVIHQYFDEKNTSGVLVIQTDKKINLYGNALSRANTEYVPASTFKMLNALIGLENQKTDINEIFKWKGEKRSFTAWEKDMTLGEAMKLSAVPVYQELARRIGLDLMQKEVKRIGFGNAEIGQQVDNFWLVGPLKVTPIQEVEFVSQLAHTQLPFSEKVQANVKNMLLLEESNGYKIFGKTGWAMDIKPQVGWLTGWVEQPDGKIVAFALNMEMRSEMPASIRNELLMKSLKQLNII
Sequence of purified class A, C and D enzymes (β-lactamases) (Enterobacter cloacae, UniProt P05364) (P05364 21-381): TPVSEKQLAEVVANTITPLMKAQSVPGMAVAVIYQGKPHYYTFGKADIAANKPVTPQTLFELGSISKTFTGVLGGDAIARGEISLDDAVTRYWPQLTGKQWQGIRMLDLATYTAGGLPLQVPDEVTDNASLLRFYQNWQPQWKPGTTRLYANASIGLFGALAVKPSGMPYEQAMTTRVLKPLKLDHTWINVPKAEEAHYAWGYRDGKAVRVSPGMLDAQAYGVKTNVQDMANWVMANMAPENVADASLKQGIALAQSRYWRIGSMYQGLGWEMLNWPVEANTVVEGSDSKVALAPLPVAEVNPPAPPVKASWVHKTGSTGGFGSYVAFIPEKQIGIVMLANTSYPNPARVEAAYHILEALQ
Sequence of purified class A, C and D enzymes (β-lactamases) (Escherichia coli, UniProt Q9L5C7) (Q9L5C7 entry or part of it): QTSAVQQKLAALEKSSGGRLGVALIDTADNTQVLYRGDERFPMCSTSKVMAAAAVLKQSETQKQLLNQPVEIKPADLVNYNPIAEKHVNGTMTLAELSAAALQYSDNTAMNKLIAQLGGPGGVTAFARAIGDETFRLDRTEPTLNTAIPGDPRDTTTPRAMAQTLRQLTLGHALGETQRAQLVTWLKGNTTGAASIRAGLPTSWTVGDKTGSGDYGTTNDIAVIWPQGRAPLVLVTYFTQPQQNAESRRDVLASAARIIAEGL

SMILES: O=C(O)c1c(-n2ccnn2)ccc2c1O[B-](O)(O)CC2 [Compound 13, Disodium; 4,4-dihydroxy-8-(triazol-1-yl)-5-oxa-4-boranuidabicyclo[4.4.0]deca-1(6),7,9-triene-7-carboxylate]
- MPM MPC8 AB1053 OXA-72 [1]: X (X = MPC@1 ≤ 5 μg/mL)
- AZT MPC4 ECL1002 [2]: X (X = MPC@4 ≤ 5 μg/mL)
- MPM MPC8 AB1054 OXA-23 [3]: X (X = MPC@1 ≤ 5 μg/mL)
- AZT MPC4 KPC-2 KP1004 [4]: X (X = MPC@4 ≤ 5 μg/mL)
- TIG MPC4 CTX-M-14 KP1005 [5]: X (X = MPC@4 ≤ 5 μg/mL)
- AZT MPC4 SHV-5 ec308 [6]: X (X = MPC@4 ≤ 5 μg/mL)
- AZT MPC4 CMY-6 EC1010 [7]: X (X = MPC@4 ≤ 5 μg/mL)
- Ki (P99, NCF), uM [8]: X (key: X = Ki ≤ 0.1 μM; Y = 0.1 μM < Ki ≤ 1 μM; Z = Ki > 1 μM)
- Ki (OXA-48, NCF), uM [9]: X (X = Ki ≤ 0.1 μM)
- Ki (KPC-2, NCF), uM [10]: X (X = Ki ≤ 0.1 μM)
- Ki [11]: < 100 nM
- Ki (CTX-M-14, NCF), uM [12]: X (X = Ki ≤ 0.1 μM)
- Ki [13]: < 100 nM
- BPM MPC1 OXA-48 KP1086 [14]: X (X = MPC@1 ≤ 5 μg/mL)
- BPM MPC1 KP1004 KPC-2 [15]: X (X = MPC@1 ≤ 5 μg/mL)
- AZT MPC4 CTX-M-15 KP1009 [16]: X (X = MPC@4 ≤ 5 μg/mL)
- AZT MPC4 TEM-10 ec302 [17]: X (X = MPC@4 ≤ 5 μg/mL)
- AZT MPC4 SHV-12 KP1010 [18]: X (X = MPC@4 ≤ 5 μg/mL)

SMILES: N#CCOc1ccc2c(c1C(=O)O)OB(O)CC2 [Compound 47, 7-(Cyanomethoxy)-2-hydroxy-3,4-dihydro-1,2-benzoxaborinine-8-carboxylic acid]
- MPM MPC8 AB1053 OXA-72 [1]: X (X = MPC@1 ≤ 5 μg/mL)
- AZT MPC4 ECL1002 [2]: X (X = MPC@4 ≤ 5 μg/mL)
- MPM MPC8 AB1054 OXA-23 [3]: X (X = MPC@1 ≤ 5 μg/mL)
- AZT MPC4 KPC-2 KP1004 [4]: X (X = MPC@4 ≤ 5 μg/mL)
- TIG MPC4 CTX-M-14 KP1005 [5]: X (X = MPC@4 ≤ 5 μg/mL)
- AZT MPC4 SHV-5 ec308 [6]: X (X = MPC@4 ≤ 5 μg/mL)
- AZT MPC4 CMY-6 EC1010 [7]: X (X = MPC@4 ≤ 5 μg/mL)
- Ki (P99, NCF), uM ([8]; purified P99, nitrocefin (NCF) as reporter substrate): X (X = Ki ≤ 0.1 μM)
- Ki (OXA-48, NCF), uM [9]: X (X = Ki ≤ 0.1 μM)
- Ki (KPC-2, NCF), uM [10]: X (X = Ki ≤ 0.1 μM)
- Ki [11]: < 100 nM
- Ki ([13]; purified Pa-AmpC, nitrocefin (NCF) as reporter substrate, read-out: Ki (Pa-AmpC, NCF)): < 100 nM
- BPM MPC1 OXA-48 KP1086 [14]: X (X = MPC@1 ≤ 5 μg/mL)
- BPM MPC1 KP1004 KPC-2 [15]: X (X = MPC@1 ≤ 5 μg/mL)
- AZT MPC4 CTX-M-15 KP1009 [16]: X (X = MPC@4 ≤ 5 μg/mL)
- AZT MPC4 TEM-10 ec302 [17]: X (X = MPC@4 ≤ 5 μg/mL)
- AZT MPC4 SHV-12 KP1010 [18]: X (X = MPC@4 ≤ 5 μg/mL)

SMILES: N#Cc1ccc2c(c1C(=O)[O-])O[B-](O)(O)CC2.[Na+].[Na+] [Compound 54, Disodium; 8-cyano-4,4-dihydroxy-5-oxa-4-boranuidabicyclo[4.4.0]deca-1(6),7,9-triene-7-carboxylate]
- MPM MPC8 AB1053 OXA-72 [1]: Z (Z = MPC@1 > 20 μg/mL)
- AZT MPC4 ECL1002 [2]: Z (Z = MPC@4 > 20 μg/mL)
- MPM MPC8 AB1054 OXA-23 [3]: Z (Z = MPC@1 > 20 μg/mL)
- AZT MPC4 KPC-2 KP1004 [4]: Z (Z = MPC@4 > 20 μg/mL)
- TIG MPC4 CTX-M-14 KP1005 [5]: Z (Z = MPC@4 > 20 μg/mL)
- AZT MPC4 SHV-5 ec308 [6]: Z (Z = MPC@4 > 20 μg/mL)
- AZT MPC4 CMY-6 EC1010 [7]: Y (Y = 5 μg/mL < MPC@4 ≤ 20 μg/mL)
- Ki (P99, NCF), uM [8]: Y (key: X = Ki ≤ 0.1 μM; Y = 0.1 μM < Ki ≤ 1 μM; Z = Ki > 1 μM)
- Ki (OXA-48, NCF), uM [9]: X (X = Ki ≤ 0.1 μM)
- Ki (KPC-2, NCF), uM [10]: Z (Z = Ki > 1 μM)
- Ki [11]: 100 to 1000 nM
- Ki [13]: > 1000 nM
- BPM MPC1 OXA-48 KP1086 [14]: Z (Z = MPC@1 > 20 μg/mL)
- BPM MPC1 KP1004 KPC-2 [15]: X (X = MPC@1 ≤ 5 μg/mL)
- AZT MPC4 CTX-M-15 KP1009 [16]: Z (Z = MPC@4 > 20 μg/mL)
- AZT MPC4 TEM-10 ec302 [17]: Z (Z = MPC@4 > 20 μg/mL)
- AZT MPC4 SHV-12 KP1010 [18]: Z (Z = MPC@4 > 20 μg/mL)
